“Also recorded” adds a separate entry of the source.
Columns and labels:
[1] = test system: E0771 mammary tumor cell line; assay: E0771 mammary tumor challenge in mice treated with S-equol and/or anti-PD-1 antibody; format: in vivo, mouse; conditions: E0771 mammary tumor model, Example 14, four arms (FIG. 33A-B)
Description: The following three murine mammary tumor lines were tested to determine the effects of a PD-1 inhibitor, S-equol and a combination of the two therapies on tumor growth: (1) E0771 (B6 background), (2) AT-3 (B6 background), and (3) 4T1 (BalbC background). This experimental design includes four arms (using AT-3 as an example): (1) controls, (2) αPD-1, (3) S-equol, and (4) αPD-1+S-equol (FIG. 3) by injecting into mice 2×10^5 cells subcutaneously into the 4th mammary gland fat pad. Antibodies were administered α-PD-1: 200 μg/mice by i.p. injection every 3 days and S-equol was administered at 50 mg/kg/day by oral gavage. Treatment began 7 day after tumor challenge. Tumor growth trajectories were compared within treated mice using a repeated measures linear mixed model. The primary outcome was the logarithm of the tumor size, and the test statistic is the treatment×time interaction. Tumors were measured about 10 times. The number of recipient mice use used in the studies (n=8 per group) was based on the above study.
For tumor studies, 8 to 10-week-old mice were used. M-Wnt (5 Å˜10^5 cells), E0771 (5 Å˜10^5 cells), AT-3 (2 Å˜10^5 cells), and EMT-6 (5 Å˜10^5 cells) tumor cells were subcutaneously inoculated into the fourth mammary pad. […] Tumor volume was measured with calipers (0.5 Å˜length Å˜width2) on the indicated days. […]

melanoma = assay: Pilot biomarker clinical study of S-equol in melanoma (Example 7, present tense); format: in vivo, human; conditions: melanoma patients, oral S-equol 50 mg twice daily 10-21 days
Description: A pilot biomarker clinical study is performed in 20 subjects with documented melanoma to determine the effect of the ERβ agonist S-equol on Ki67 an indicator of tumor cell proliferation. Tumor cell proliferation is measured by immunohistological staining for Ki-67. Ki-67 is encoded by the gene MKI67 gene and is required to maintain individual mitotic chromosomes dispersed in the cytoplasm following nuclear envelope disassembly. Measuring the fraction of Ki-67-positive cells in a tumor is known to be a reliable parameter for assessing cancer patient prognosis. Subjects with TNBC are known to have very high levels of Ki67.
Patients enrolled in the study receive a history, physical, laboratory assessment, radiological imaging, and diagnostic biopsies. Immunohistochemistry (IHC) of Ki67 (proliferation marker), total ERβ, and pY36-ERβ (phosphorylated ERβ), B7H1 (also known as PDL-1) and MIA and S100B are conducted using core needle biopsy tissue samples prior to treatment. Patients are given oral S-equol 50 mg, twice daily for approximately two weeks (10-21 days) prior to the scheduled oncologic surgeries or start of primary systemic therapy. […]
A standard procedure for acquiring core biopsy is utilized for determining melanoma prior to enrollment. […] The tissue samples are sent for staining of total and pY36, ERβ and Ki67, and analyzed. […]

cytochrome oxidase (COX) = conditions: brains from ovariectomized mice; cited from earlier work

Compound: Oc1ccc([C@H]2COc3cc(O)ccc3C2)cc1 [S-equol]
- tumor response (volume and weight) [1]: responded
- change in Ki67 pre- vs post-treatment (in words) (melanoma): measurable decrease in Ki67; also recorded: measurable decline in Ki67
- cytochrome oxidase (COX) activity and COX1 protein levels (cytochrome oxidase (COX)): increase

Source: US12070444B2, “Modulation of molecular markers using S-equol” (Board of Regents, The University of Texas System, priority 2020, dated 2024)
